Data taken from patent publication US20260263593A1, “ALLERGY ANTIGEN AND EPITOPE THEREOF” (HOYU CO., LTD., priority 2018, published 2026).

These substances were tested on IgE antibody present in the serum of a shrimp-allergic patient (assay: Epitope mapping (1): array of overlapping 15-amino-acid peptides, chemiluminescence). Conditions: 15-amino-acid peptide array; serum of 37 patients; difference from N2nd value of 5 non-shrimp-allergic subjects at least 35,000.
Assay type: binding, human
Description: Epitope mapping was carried out using a library of overlapping peptides (length: 15 amino acids) corresponding to the amino acid sequences identified as allergy components of shrimp and the amino acid sequence of arginine kinase. Specifically, the library of overlapping peptides was prepared on the basis of the amino acid sequences of SEQ ID NOs: 117, 141, 146, 2, 45, 87, 276, 161, 230, 179, 362, 381, 399, 421, 455, 481, 486, 520, 541, 300 and 306, and arginine kinase.
The peptides to be synthesized were shifted by 10 amino acids.
For preparation of peptide arrays, the Intavis CelluSpots™ technique was used. Specifically, the peptide arrays were prepared by the following procedure: (1) synthesizing peptides of interest on amino-modified cellulose disks using an automated chemical synthesis apparatus (Intavis MultiPep RS), (2) dissolving the amino-modified cellulose disks to obtain a cellulose-bound peptide solution, and (3) spotting the cellulose-bound peptides onto coated glass slides. The details of each procedure are as described below.
Peptide synthesis was carried out in incremental steps through 9-fluorenylmethoxycarbonyl (Fmoc) chemical reaction on amino-modified cellulose disks in 384-well synthesis plates. Specifically, amino acids in which a Fmoc group is bonded to an amino group were activated in a solution of N,N′-diisopropylcarbodiimide (DIC) and 1-hydroxybenzotriazole (HOBt) in dimethylformamide (DMF) and added dropwise to the cellulose disks so that the Fmoc group-bound amino acids were bound to the amino groups on the cellulose disks (coupling). Unreacted amino groups were capped with acetic anhydride and washed with DMF. Furthermore, the Fmoc groups were eliminated from the amino groups of the amino acids bound to the amino groups on the cellulose disks by treatment with piperidine and washing with DMF. The amino acids bound to the amino groups on the cellulose disks were repetitively subjected to the coupling, the capping, and the Fmoc group elimination described above to elongate the amino terminus for peptide synthesis.
The peptides-bound cellulose disks of interest obtained above in the subsection titled “(1) Synthesis of peptide” were transferred to 96-well plates and treated with a side chain deprotection mixed solution of trifluoroacetic acid (TFA), dichloromethane, triisopropylsilane (TIPS), and water for deprotection of amino acid side chains. Then, the deprotected cellulose-bound peptides were dissolved in a mixed solution of TFA, trifluoromethanesulfonic acid (TFMSA), TIPS, and water and precipitated in tetrabutyl methyl ether (TBME), and the precipitate was resuspended in dimethyl sulfoxide (DMSO) and mixed with a mixed solution of NaCl, sodium citrate, and water to obtain a peptide solution for slide spotting.
The peptide solution for slide spotting obtained above in the subsection titled “(2) Dissolution of amino-modified cellulose disk” was spotted onto Intavis CelluSpots™ slides using Intavis Slide Spotting Robot, and the slides were dried to prepare peptide arrays.
The presence or absence of binding, to each peptide fragment, of an IgE antibody present in the serum of a shrimp-allergic patient was measured through antigen-antibody reaction using the peptide arrays. […]

Q: Which “Peptide bound to an IgE antibody in serum in a patient-specific manner” value (“Peptide bound to an IgE antibody” below) does the source give for “E31: common 15-residue IgE-binding epitope sequence of polypeptide (E31), myosin heavy chain type 1-derived (ESRGRATLLGKFRNL; VAR_SEQ 1..15 epitope) [Epitope E31]” here?
A: bound to an IgE antibody in serum in a patient-specific manner

Q: Which “Peptide bound to an IgE antibody” value does the source give for “E46: common 15-residue IgE-binding epitope sequence of polypeptide (E46), phosphopyruvate hydratase-derived (TGVHEALEMRDGDKS; VAR_SEQ 1..15 epitope) [Epitope E46]” here?
A: bound to an IgE antibody in serum in a patient-specific manner

Q: Which “Peptide bound to an IgE antibody” value does the source give for “E6: common 15-residue IgE-binding epitope sequence of polypeptide (E6), myosin heavy chain type 2-derived (KDHQIRNINDEISHQ; VAR_SEQ 1..15 epitope) [Epitope E6]” here?
A: bound to an IgE antibody in serum in a patient-specific manner

Q: With “E50: common 15-residue IgE-binding epitope sequence of polypeptide (E50), cyclophilin A-derived (AADNQPVGRIVMELR; VAR_SEQ 1..15 epitope) [Epitope E50]” as the substance, how does the “Peptide bound to an IgE antibody” value read?
A: bound to an IgE antibody in serum in a patient-specific manner

Q: Which “Peptide bound to an IgE antibody” value does the source give for “E47: common 15-residue IgE-binding epitope sequence of polypeptide (E47), phosphopyruvate hydratase-derived (HLKAVIKGRFGLDAT; VAR_SEQ 1..15 epitope) [Epitope E47]” here?
A: bound to an IgE antibody in serum in a patient-specific manner

Q: How did the “Peptide bound to an IgE antibody” value turn out when “E10: common 15-residue IgE-binding epitope sequence of polypeptide (E10), myosin heavy chain type 2-derived (HFRIKAVYEENLEHL; VAR_SEQ 1..15 epitope) [Epitope E10]” was run?
A: bound to an IgE antibody in serum in a patient-specific manner

Q: “E16: common 15-residue IgE-binding epitope sequence of polypeptide (E16), pyruvate kinase 3-derived (NVRKAAQKYSDKIGH; VAR_SEQ 1..15 epitope) [Epitope E16]” was tested. Which “Peptide bound to an IgE antibody” value did it give?
A: bound to an IgE antibody in serum in a patient-specific manner

Q: How did the “Peptide bound to an IgE antibody” value turn out when “E19: common 15-residue IgE-binding epitope sequence of polypeptide (E19), mitochondrial ATP synthase subunit alpha precursor-derived (VLSIGDGIARVYGLK; VAR_SEQ 1..15 epitope) [Epitope E19]” was run?
A: bound to an IgE antibody in serum in a patient-specific manner

Q: Which “Peptide bound to an IgE antibody” value does the source give for “E12: common 15-residue IgE-binding epitope sequence of polypeptide (E12), glycogen phosphorylase-derived (LPEALERWPTSMLEH; VAR_SEQ 1..15 epitope) [Epitope E12]” here?
A: bound to an IgE antibody in serum in a patient-specific manner

Q: For “E17: common 15-residue IgE-binding epitope sequence of polypeptide (E17), pyruvate kinase 3-derived (PGNRIFVDDGLISLI; VAR_SEQ 1..15 epitope) [Epitope E17]”, which “Peptide bound to an IgE antibody” value is on record?
A: bound to an IgE antibody in serum in a patient-specific manner

Q: “E27: common 15-residue IgE-binding epitope sequence of polypeptide (E27), myosin heavy chain type 1-derived (KLVTVKLPSGETKDF; VAR_SEQ 1..15 epitope) [Epitope E27]” was tested. Which “Peptide bound to an IgE antibody” value did it give?
A: bound to an IgE antibody in serum in a patient-specific manner

Q: “E9: common 15-residue IgE-binding epitope sequence of polypeptide (E9), myosin heavy chain type 2-derived (DQLATELDASQKECR; VAR_SEQ 1..15 epitope) [Epitope E9]” was tested. Which “Peptide bound to an IgE antibody” value did it give?
A: bound to an IgE antibody in serum in a patient-specific manner

Q: For “E32: common 15-residue IgE-binding epitope sequence of polypeptide (E32), myosin heavy chain type 1-derived (INELEIALDHANKAN; VAR_SEQ 1..15 epitope) [Epitope E32]”, which “Peptide bound to an IgE antibody” value is on record?
A: bound to an IgE antibody in serum in a patient-specific manner

Q: With “E11: common 15-residue IgE-binding epitope sequence of polypeptide (E11), myosin heavy chain type 2-derived (RSLHEIEKNAKRFEI; VAR_SEQ 1..15 epitope) [Epitope E11]” as the substance, how does the “Peptide bound to an IgE antibody” value read?
A: bound to an IgE antibody in serum in a patient-specific manner

Q: For “E13: common 15-residue IgE-binding epitope sequence of polypeptide (E13), glycogen phosphorylase-derived (EWVVHLDQLTKLKPL; VAR_SEQ 1..15 epitope) [Epitope E13]”, which “Peptide bound to an IgE antibody” value is on record?
A: bound to an IgE antibody in serum in a patient-specific manner

Q: How did the “Peptide bound to an IgE antibody” value turn out when “E39: common 15-residue IgE-binding epitope sequence of polypeptide (E39), myosin heavy chain type 1-derived (VQKTNQDKATKDHQI; VAR_SEQ 1..15 epitope) [Epitope E39]” was run?
A: bound to an IgE antibody in serum in a patient-specific manner

Q: For “E25: common 15-residue IgE-binding epitope sequence of polypeptide (E25), arginine kinase-derived (VNVDPEGKFVISTRV; VAR_SEQ 1..15 epitope) [Epitope E25]”, which “Peptide bound to an IgE antibody” value is on record?
A: bound to an IgE antibody in serum in a patient-specific manner

Q: “E14: common 15-residue IgE-binding epitope sequence of polypeptide (E14), hemocyanin subunit L1-derived (ERGIDVLGDVIESSL; VAR_SEQ 1..15 epitope) [Epitope E14]” was tested. Which “Peptide bound to an IgE antibody” value did it give?
A: bound to an IgE antibody in serum in a patient-specific manner

Q: How did the “Peptide bound to an IgE antibody” value turn out when “E15: common 15-residue IgE-binding epitope sequence of polypeptide (E15), hemocyanin subunit L1-derived (LIPKGNEQGLEFDLV; VAR_SEQ 1..15 epitope) [Epitope E15]” was run?
A: bound to an IgE antibody in serum in a patient-specific manner

Q: How did the “Peptide bound to an IgE antibody” value turn out when “E38: common 15-residue IgE-binding epitope sequence of polypeptide (E38), myosin heavy chain type 1-derived (LDKELYRCGKTKVFF; VAR_SEQ 1..15 epitope) [Epitope E38]” was run?
A: bound to an IgE antibody in serum in a patient-specific manner

Q: “E35: common 15-residue IgE-binding epitope sequence of polypeptide (E35), myosin heavy chain type 1-derived (ERGYHIFYQMMSDQV; VAR_SEQ 1..15 epitope) [Epitope E35]” was tested. Which “Peptide bound to an IgE antibody” value did it give?
A: bound to an IgE antibody in serum in a patient-specific manner

Q: Which “Peptide bound to an IgE antibody” value does the source give for “E40: common 15-residue IgE-binding epitope sequence of polypeptide (E40), myosin heavy chain type 1-derived (EISHQDEIINKVNKE; VAR_SEQ 1..15 epitope) [Epitope E40]” here?
A: bound to an IgE antibody in serum in a patient-specific manner

Q: For “E24: common 15-residue IgE-binding epitope sequence of polypeptide (E24), arginine kinase-derived (LFDPIIEDYHVGFKQ; VAR_SEQ 1..15 epitope) [Epitope E24]”, which “Peptide bound to an IgE antibody” value is on record?
A: bound to an IgE antibody in serum in a patient-specific manner

Q: “E30: common 15-residue IgE-binding epitope sequence of polypeptide (E30), myosin heavy chain type 1-derived (MLEAKDDKKAATACF; VAR_SEQ 1..15 epitope) [Epitope E30]” was tested. Which “Peptide bound to an IgE antibody” value did it give?
A: bound to an IgE antibody in serum in a patient-specific manner
